Assay results: EP2801573A1, “Hydantoine derivatives as CD38 inhibitors” (SANOFI, priority 2013, dated 2014)
Structures can show the parent of a compound that is named as a salt.

Target: T1, human recombinant CD38 enzyme (Homo sapiens, UniProt P28907)
T1 construct: purchased R&D Systems H7006
T1 sequence (P28907 1-300): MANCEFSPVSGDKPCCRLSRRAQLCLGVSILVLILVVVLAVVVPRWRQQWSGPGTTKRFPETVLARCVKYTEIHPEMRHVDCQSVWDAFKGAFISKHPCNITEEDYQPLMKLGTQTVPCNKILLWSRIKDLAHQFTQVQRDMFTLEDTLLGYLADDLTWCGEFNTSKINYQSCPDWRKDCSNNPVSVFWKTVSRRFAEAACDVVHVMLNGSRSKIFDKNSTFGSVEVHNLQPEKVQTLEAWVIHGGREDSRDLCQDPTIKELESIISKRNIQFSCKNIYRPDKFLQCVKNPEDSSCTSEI
Assay: Human recombinant enzyme assay (fluorimetric CD38 enzyme assay, ε-NAD substrate)
Type: biochemical
Conditions: recombinant CD38 100 ng/ml, ε-NAD 100 µM, pH = 6.0, 37°C, reaction time 30 min; read-out: IC50 (nM) ENAD
Method: Enzyme assay on human recombinant CD38 enzyme were performed in order to determine the in vitro potency of the newly synthesized compounds. IC50 values were determined for the test compounds and used to explore the structure-activity relationships (SAR).
N6-etheno-NAD (ε-NAD), a NAD analogue previously shown to be a convenient substrate of CD38 enzyme activity (Graeff et al. J. Biol. Chem. 269, pp 30260-30367, […]) was used to measure the activity of human recombinant CD38 and cell surface enzyme activity.
A fluorimetric CD38 enzyme assay was performed as described by Graeff et al. The reaction was started with 10 µl of N6-etheno-NAD (ε-NAD) substrate, final concentration 100 µM, in a final volume of 0.1 ml buffered with 50 mM HEPES, 0.05% BRIJ, pH = 6.0 containing 100 ng/ml recombinant CD38 (R&D Systems, H7006). Cleavage of ε-NAD, which causes a 10-fold fluorescence enhancement, was continuously followed at 37°C in a BMG Polarstar spectrofluorometer at an emission wavelength of 410 nm and an excitation of 300 nm, reaction time was 30 min. NADase activity was expressed as Δ relative fluorescence/min. The rate of enzyme reactions were compared in the presence and absence of inhibitor molecule, the IC50 values were calculated with Biostat Speed program.

Row | SMILES | IC50
1 | CC1CCN(C(=O)c2ccc(N3C(=O)N/C(=C\c4ccncc4)C3=O)cc2)CC1 [Compound 47, 3-[4-(4-Methyl-piperidine-1-carbonyl)-phenyl]-5-[1-pyridin-4-yl-meth-(Z)-ylidene]-imidazolidine-2,4-dione] | 74 nM
2 | CC(=O)c1ccc(N2C(=O)N/C(=C\c3ccncc3)C2=O)cc1 [Compound 23, 3-(4-Acetyl-phenyl)-5-[1-pyridin-4-yl-meth-(Z)-ylidene]-imidazolidine-2,4-dione] | 26 nM
3 | CC(C)(C)c1ccc(N2C(=O)N/C(=C\c3ccncc3)C2=O)cc1 [Compound 35, 3-(4-tert-Butyl-phenyl)-5-[1-pyridin-4-yl-meth-(Z)-ylidene]-imidazolidine-2,4-dione] | 100 nM
4 | CSc1ccc(N2C(=O)N/C(=C\c3ccncc3)C2=O)cc1 [Compound 8, 3-(4-Methylsulfanyl-phenyl)-5-[1-pyridin-4-yl-meth-(Z)-ylidene]-imidazolidine-2,4-dione] | 70 nM
5 | O=C1N/C(=C\c2ccncc2)C(=O)N1CCc1ccccc1 [Compound 18, 3-Phenethyl-5-[1-pyridin-4-yl-meth-(Z)-ylidene]-imidazolidine-2,4-dione] | 60 nM
6 | O=C1N/C(=C\c2ccncc2)C(=O)N1c1ccc(Cl)c(Cl)c1 [Compound 6, 3-(3,4-Dichloro-phenyl)-5-[1-pyridin-4-yl-meth-(Z)-ylidene]-imidazolidine-2,4-dione] | 50 nM
7 | O=C1N/C(=C\c2ccncc2)C(=O)N1c1ccc(OC(F)(F)F)cc1 [Compound 30, 5-[1-Pyridin-4-yl-meth-(Z)-ylidene]-3-(4-trifluoromethoxy-phenyl)-imidazolidine-2,4-dione] | 28 nM
8 | COc1ccc(N2C(=O)N/C(=C\c3ccncc3)C2=O)cc1 [Compound 17, 3-(4-Methoxy-phenyl)-5-[1-pyridin-4-yl-meth-(Z)-ylidene]-imidazolidine-2,4-dione] | 55 nM
9 | O=C1N/C(=C\c2ccncc2)C(=O)N1CC1(CO)CCCC1 [Compound 64, 3-(1-Hydroxymethyl-cyclopentylmethyl)-5-[1-pyridin-4-yl-meth-(Z)-ylidene]-imidazolidine-2,4-dione] | 16 nM
10 | O=C(O)Cc1ccc(N2C(=O)N/C(=C\c3ccncc3)C2=O)cc1 [Compound 32, (4-{2,5-Dioxo-4-[1-pyndin-4-yl-meth-(Z)-ylidene]-imidazolidin-1-yl}-phenyl)-acetic acid] | 38 nM
11 | O=C(c1ccc(N2C(=O)N/C(=C\c3ccncc3)C2=O)cc1)N1CCOCC1 [Compound 29, 3-[4-(Morpholine-4-carbonyl)-phenyl]-5-[1-pyridin-4-yl-meth-(Z)-ylidene]-imidazolidine-2,4-dione] | 51 nM
12 | O=C(NC1CCCCC1)c1ccc(N2C(=O)N/C(=C\c3ccncc3)C2=O)cc1 [Compound 51, N-Cyclohexyl-4-{2,5-dioxo-4-[1-pyndin-4-yl-meth-(Z)-ylidene]-imidazolidin-1-yl}-benzamide] | 63 nM
13 | CCC(C)N1C(=O)N/C(=C\c2ccncc2)C1=O (stereo not drawn) [Compound 42, 3-sec-Butyl-5-[1-pyridin-4-yl-meth-(Z)-ylidene]-imidazolidine-2,4-dione] | 868 nM
14 | O=C1N/C(=C\c2ccncc2)C(=O)N1C12CC3CC(CC(C3)C1)C2 [Compound 38, 3-Adamantan-1-yl-5-[1-pyridin-4-yl-meth-(Z)-ylidene]-imidazolidine-2,4-dione] | 400 nM
15 | C[C@@H]1CN(C(=O)c2ccc(N3C(=O)N/C(=C\c4ccncc4)C3=O)cc2)C[C@H](C)O1 [Compound 45, 3-[4-((2R,6S)-2,6-Dimethyl-morpholine-4-carbonyl)-phenyl]-5-[1-pyridin-4-yl-meth-(Z)-ylidene]-imidazolidine-2,4-dione] | 34 nM
16 | CCCN1C(=O)N/C(=C\c2ccncc2)C1=O [Compound 41, 3-Propyl-5-[1-pyridin-4-yl-meth-(Z)-ylidene]-imidazolidine-2,4-dione] | 80 nM
17 | O=C1N/C(=C\c2ccncc2)C(=O)N1c1ccc(F)c(F)c1 [Compound 10, 3-(3,4-Difluoro-phenyl)-5-[1-pyridin-4-yl-meth-(Z)-ylidene]-imidazolidine-2,4-dione] | 30 nM
18 | CC(C)(O)CCN1C(=O)N/C(=C\c2ccncc2)C1=O [Compound 57, 3-(3-Hydroxy-3-methyl-butyl)-5-[1-pyridin-4-yl-meth-(Z)-ylidene] -imidazolidine-2,4-dione] | 20 nM
19 | CS(=O)(=O)c1ccc(N2C(=O)N/C(=C\c3ccncc3)C2=O)cc1 [Compound 26, 3-(4-Methanesulfonyl-phenyl)-5-[1-pyridin-4-yl-meth-(Z)-ylidene]-imidazolidine-2,4-dione] | 22 nM
20 | O=C1N/C(=C\c2ccncc2)C(=O)N1c1ccc(C(F)(F)F)cc1 [Compound 31, 5-[1-Pyridin-4-yl-meth-(Z)-ylidene]-3-(4-trifluoromethyl-phenyl)-imidazolidine-2,4-dione] | 43 nM
21 | CCc1ccc(N2C(=O)N/C(=C\c3ccncc3)C2=O)cc1 [Compound 4, 3-(4-Ethyl-phenyl)-5-[1-pyridin-4-yl-meth-(Z)-ylidene]-imidazolidine-2,4-dione] | 60 nM
22 | CCOc1ccc(CCN2C(=O)N/C(=C\c3ccncc3)C2=O)cc1OCC [Compound 36, 3-[2-(3,4-Diethoxy-phenyl)-ethyl]-5-[1-pyridin-4-yl-meth-(Z)-ylidene]-imidazolidine-2,4-dione] | 250 nM
23 | CN(C)c1ccc(N2C(=O)N/C(=C\c3ccncc3)C2=O)cc1 [Compound 14, 3-(4-Dimethylamino-phenyl)-5-[1-pyridin-4-yl-meth-(Z)-ylidene]-imidazolidine-2,4-dione] | 90 nM
24 | O=C1N/C(=C\c2ccncc2)C(=O)N1Cc1ccccc1 [Compound 7, 3-Benzyl-5-[1-pyridin-4-yl-meth-(Z)-ylidene]-imidazolidine-2,4-dione] | 50 nM

The remaining compounds from weak to strong by IC50, led by results:

Row | IC50 | SMILES
25 | 292 nM | O=C1N/C(=C\c2ccncc2)C(=O)N1C1CCCCC1 [Compound 9, 3-Cyclohexyl-5-[1-pyridin-4-yl-meth-(Z)-ylidene]-imidazolidine-2,4-dione]
26 | 240 nM | O=C1N/C(=C\c2ccncc2)C(=O)N1CCNC(=O)C(F)(F)F [Compound 65, N-(2-{2,5-Dioxo-4-[1-pyridin-4-yl-meth-(Z)-ylidene]-imidazolidin-1-yl}-ethyl)-2,2,2-trifluoro-acetamide]
27 | 224 nM | CCOC(=O)CN1C(=O)N/C(=C\c2ccncc2)C1=O [Compound 43, {2,5-Dioxo-4-[1-pyridin-4-yl-meth-(Z)-ylidene]-imidazolidin-1-yl}-acetic acid ethyl ester]
28 | 61 nM | O=C1N/C(=C\c2ccncc2)C(=O)N1c1cccnc1 [Compound 39, 3-Pyridin-3-yl-5-[1-pyridin-4-yl-meth-(Z)-ylidene]-imidazolidine-2,4-dione]
29 | 60 nM | C[S+]([O-])c1ccc(N2C(=O)N/C(=C\c3ccncc3)C2=O)cc1 (stereo not drawn) [Compound 25, 3-(4-Methanesulfinyl-phenyl)-5-[1-pyridin-4-yl-meth-(Z)-ylidene]-imidazolidine-2,4-dione]
30 | 50 nM | O=C(NC1CCCC1)c1ccc(N2C(=O)N/C(=C\c3ccncc3)C2=O)cc1 [Compound 49, N-Cyclopentyl-4-{2,5-dioxo-4-[1-pyridm-4-yl-meth-(Z)-ylidene]-imidazolidm-1-yl}-benzamide]
31 | 50 nM | O=C1N/C(=C\c2ccncc2)C(=O)N1c1cccc(Cl)c1 [Compound 5, 3-(3-Chloro-phenyl)-5-[1-pyridin-4-yl-meth-(Z)-ylidene]-imidazolidine-2,4-dione HCl-salt]
32 | 42 nM | CC(C)(CO)CN1C(=O)N/C(=C\c2ccncc2)C1=O [Compound 52, 3-(3-Hydroxy-2,2-dimethyl-propyl)-5-[1-pyridin-4-yl-meth-(Z)-ylidene]-imidazolidine-2,4-dione]
33 | 36 nM | CCOC(=O)C1CCN(C(=O)c2ccc(N3C(=O)N/C(=C\c4ccncc4)C3=O)cc2)CC1 [Compound 54, 1-(4-{2,5-Dioxo-4-[1-pyridin-4-yl-meth-(Z)-ylidene]-imidazotidin-l-yl}-benzoyl)-piperidine-4-carboxylic acid ethyl ester]
34 | 30 nM | Cc1ccc(N2C(=O)N/C(=C\c3ccncc3)C2=O)cc1 [Compound 19, 5-[1-Pyndin-4-yl-meth-(Z)-ylidene]-3-p-totyl-imidazolidine-2,4-dione]
35 | 30 nM | CC(=O)c1cccc(N2C(=O)N/C(=C\c3ccncc3)C2=O)c1 [Compound 13, 3-(3-Acetyl-phenyl)-5-[1-pyridin-4-yl-meth-(Z)-ylidene]-imidazolidine-2,4-dione]
36 | 16 nM | O=C1N/C(=C\c2ccncc2)C(=O)N1c1ccc(F)cc1 [Compound 12, 3-(4-Fluoro-phenyl)-5-[1-pyridin-4-yl-meth-(2)-ylidene]-imidazolidine-2,4-dione]
